Literature values, collected in paper PMC4210863 (Bioorganic & medicinal chemistry, 2010).

Target: T1, O-GlcNAcase (OGA) (Homo sapiens, UniProt O60502)
T1 sequence (O60502 1-916): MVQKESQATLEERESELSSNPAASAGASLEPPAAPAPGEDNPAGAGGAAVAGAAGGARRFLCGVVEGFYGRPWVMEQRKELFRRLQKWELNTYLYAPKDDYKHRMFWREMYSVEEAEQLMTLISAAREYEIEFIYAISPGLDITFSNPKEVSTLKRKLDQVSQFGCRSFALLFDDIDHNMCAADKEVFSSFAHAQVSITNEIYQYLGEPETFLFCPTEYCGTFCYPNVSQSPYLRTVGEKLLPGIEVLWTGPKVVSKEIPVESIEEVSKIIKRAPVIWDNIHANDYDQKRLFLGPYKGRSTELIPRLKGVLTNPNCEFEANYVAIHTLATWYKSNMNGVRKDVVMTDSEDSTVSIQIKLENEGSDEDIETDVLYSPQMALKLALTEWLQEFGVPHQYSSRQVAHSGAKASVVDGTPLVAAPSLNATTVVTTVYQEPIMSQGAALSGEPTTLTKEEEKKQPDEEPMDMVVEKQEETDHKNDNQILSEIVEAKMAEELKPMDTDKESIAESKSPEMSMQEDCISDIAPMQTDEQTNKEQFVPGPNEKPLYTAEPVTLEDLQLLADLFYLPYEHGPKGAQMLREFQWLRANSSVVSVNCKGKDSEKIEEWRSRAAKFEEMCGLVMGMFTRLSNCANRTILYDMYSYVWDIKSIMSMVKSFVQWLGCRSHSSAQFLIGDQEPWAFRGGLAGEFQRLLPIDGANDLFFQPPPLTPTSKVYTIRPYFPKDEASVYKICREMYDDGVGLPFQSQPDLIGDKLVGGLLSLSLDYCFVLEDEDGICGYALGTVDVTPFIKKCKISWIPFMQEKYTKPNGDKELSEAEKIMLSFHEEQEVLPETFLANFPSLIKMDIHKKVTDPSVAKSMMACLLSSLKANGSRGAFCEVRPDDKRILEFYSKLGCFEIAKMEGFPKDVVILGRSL
Assay: fluorogenic substrate hydrolysis by OGA
Type: biochemical

## CC(=O)N[C@H]1[C@H](Oc2ccc3c(c2)Oc2cc(O[C@@H]4O[C@H](CO)[C@@H](O)[C@H](O)[C@H]4NC(C)=O)ccc2C32OC(=O)c3ccccc32)O[C@H](CO)[C@@H](O)[C@@H]1O [compound 3, FDGlcNAc]
  Km: 85 µM
